Each structure is given as a SMILES string.

Experimental findings from ChEMBL document CHEMBL1909046, “DrugMatrix in vitro pharmacology data” are described below.

The target in one test is T1, Calcitonin receptor (Homo sapiens, UniProt P30988). Note: in other assays of this panel Not Active means under 50% inhibition at 10 µM.
T1 sequence (P30988 whole entry): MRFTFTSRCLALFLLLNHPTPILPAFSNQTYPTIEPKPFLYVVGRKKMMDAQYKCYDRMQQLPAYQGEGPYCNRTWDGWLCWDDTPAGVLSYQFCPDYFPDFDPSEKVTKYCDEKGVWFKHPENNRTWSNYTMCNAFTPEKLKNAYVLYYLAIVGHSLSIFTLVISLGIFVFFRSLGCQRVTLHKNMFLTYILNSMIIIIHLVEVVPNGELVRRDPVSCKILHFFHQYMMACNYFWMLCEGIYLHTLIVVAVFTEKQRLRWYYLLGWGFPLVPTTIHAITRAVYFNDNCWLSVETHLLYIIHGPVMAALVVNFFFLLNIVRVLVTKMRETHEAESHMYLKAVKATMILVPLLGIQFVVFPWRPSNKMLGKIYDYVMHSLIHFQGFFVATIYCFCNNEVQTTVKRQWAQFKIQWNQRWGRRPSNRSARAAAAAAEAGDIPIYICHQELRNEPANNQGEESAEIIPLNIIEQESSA
Assay: not given
Type of test: cell membranes, Membrane. The conditions noted are these: t47d.
For the compound `Nn1nnc2ccccc21`, the IC50 entry is “Not Active”.

With `CC[C@]1(O)CC[C@H]2[C@@H]3CCC4=CCCC[C@@H]4[C@H]3CC[C@@]21C`, the IC50 result is recorded as “Not Active”.

For the compound `N[C@@H](Cc1ccc(F)cc1)C(=O)O`, the IC50 entry is reported as “Not Active”.

Take `CCOC(=O)[C@H](CCc1ccccc1)N[C@@H](C)C(=O)N1Cc2ccccc2C[C@H]1C(=O)O`: the IC50 entry is “Not Active”.

Test system in a further test: not listed separately
Description: DRUGMATRIX: Calcium Channel Type L, Phenylalkylamine radioligand binding (ligand: [3H] (-)-Desmethoxyverapamil (D-888)). Type of test: cell membranes, Rattus norvegicus, Wistar, Brain, Membrane. The conditions noted are these: Not Active = under 50% inhibition at 10 µM.
Turning to `Nn1nnc2ccccc21`, the IC50 entry is “Not Active” and the Ki result is listed as “Not Active”.

For `CC[C@]1(O)CC[C@H]2[C@@H]3CCC4=CCCC[C@@H]4[C@H]3CC[C@@]21C`, the IC50 result is on record as “Not Active” and the Ki entry is “Not Active”.

Regarding `N[C@@H](Cc1ccc(F)cc1)C(=O)O`, the IC50 result is “Not Active” and the Ki entry is given as “Not Active”.

Regarding `CCOC(=O)[C@H](CCc1ccccc1)N[C@@H](C)C(=O)N1Cc2ccccc2C[C@H]1C(=O)O`, the IC50 entry is recorded as “Not Active” and the Ki result is “Not Active”.

Another test has as its target T2, Endothelin-1 receptor (Homo sapiens, UniProt P25101). Note: in other assays of this panel Not Active means under 50% inhibition at 10 µM.
T2 sequence (P25101 whole entry): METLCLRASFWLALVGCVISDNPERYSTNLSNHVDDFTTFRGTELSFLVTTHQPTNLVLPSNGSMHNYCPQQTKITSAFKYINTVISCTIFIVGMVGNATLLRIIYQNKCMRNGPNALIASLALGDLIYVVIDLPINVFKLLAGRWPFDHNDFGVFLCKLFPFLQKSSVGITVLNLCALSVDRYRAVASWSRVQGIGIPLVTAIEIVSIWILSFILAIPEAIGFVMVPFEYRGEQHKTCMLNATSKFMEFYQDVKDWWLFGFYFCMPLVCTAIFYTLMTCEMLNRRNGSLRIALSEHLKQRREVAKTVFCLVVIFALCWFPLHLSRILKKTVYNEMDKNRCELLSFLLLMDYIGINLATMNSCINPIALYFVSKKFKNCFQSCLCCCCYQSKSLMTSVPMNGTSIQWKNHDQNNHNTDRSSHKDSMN
Assay: not given
Type of test: cell membranes, CHO-K1, Membrane. The conditions noted are these: cho-k1.
On to `Nn1nnc2ccccc21`, for which the IC50 entry was “Not Active”.

As for `CC[C@]1(O)CC[C@H]2[C@@H]3CCC4=CCCC[C@@H]4[C@H]3CC[C@@]21C`, the IC50 entry is reported as “Not Active”.

Take `N[C@@H](Cc1ccc(F)cc1)C(=O)O`: the IC50 result is recorded as “Not Active”.

Turning to `CCOC(=O)[C@H](CCc1ccccc1)N[C@@H](C)C(=O)N1Cc2ccccc2C[C@H]1C(=O)O`, the IC50 entry is “Not Active”.

The target in a further test is T3, D(4) dopamine receptor (Homo sapiens, UniProt P21917).
T3 sequence (P21917 whole entry): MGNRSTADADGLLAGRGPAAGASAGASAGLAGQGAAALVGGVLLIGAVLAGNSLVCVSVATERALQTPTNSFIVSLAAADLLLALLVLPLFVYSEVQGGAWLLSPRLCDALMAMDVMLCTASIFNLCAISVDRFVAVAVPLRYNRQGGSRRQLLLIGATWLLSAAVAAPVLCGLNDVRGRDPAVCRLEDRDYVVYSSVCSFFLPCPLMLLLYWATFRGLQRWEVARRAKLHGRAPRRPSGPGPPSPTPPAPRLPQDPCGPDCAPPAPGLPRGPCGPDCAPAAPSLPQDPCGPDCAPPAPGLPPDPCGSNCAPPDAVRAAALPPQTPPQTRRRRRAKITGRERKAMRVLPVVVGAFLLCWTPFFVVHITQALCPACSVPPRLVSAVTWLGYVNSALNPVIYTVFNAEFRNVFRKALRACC
Description: DRUGMATRIX: Dopamine D4.2 radioligand binding (ligand: [3H] Spiperone). It counts as cell membranes, CHO-K1, Membrane. The conditions noted are these: cho-k1; Not Active = under 50% inhibition at 10 µM.
On to `Nn1nnc2ccccc21`, for which the IC50 entry is on record as “Not Active”.

On to `CC[C@]1(O)CC[C@H]2[C@@H]3CCC4=CCCC[C@@H]4[C@H]3CC[C@@]21C`, for which the IC50 entry is reported as “Not Active”.

For the compound `N[C@@H](Cc1ccc(F)cc1)C(=O)O`, the IC50 result is given as “Not Active”.

In the case of `CCOC(=O)[C@H](CCc1ccccc1)N[C@@H](C)C(=O)N1Cc2ccccc2C[C@H]1C(=O)O`, the IC50 entry is listed as “Not Active”.

Another test deals with Aldo-keto reductase family 1 member B1 (Rattus norvegicus, UniProt P07943). The test can be described thus: biochemical. It counts as tissue-based, Lens of camera-type eye.
Settings: not given
Regarding `Nn1nnc2ccccc21`, the IC50 entry is on record as “Not Active”.

As to `CC[C@]1(O)CC[C@H]2[C@@H]3CCC4=CCCC[C@@H]4[C@H]3CC[C@@]21C`, the IC50 result is listed as “Not Active”.

As for `N[C@@H](Cc1ccc(F)cc1)C(=O)O`, the IC50 result was “Not Active”.

As for `CCOC(=O)[C@H](CCc1ccccc1)N[C@@H](C)C(=O)N1Cc2ccccc2C[C@H]1C(=O)O`, the IC50 entry is given as “Not Active”.

For a further test, the target named is T4, Angiotensin-converting enzyme (Oryctolagus cuniculus, UniProt P12822).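 Note: enzymatic inhibition of angiotensin-converting enzyme measured with FAPGG as the substrate; in other assays of this panel Not Active means under 50% inhibition at 10 µM.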
T4 sequence (P12822 whole entry): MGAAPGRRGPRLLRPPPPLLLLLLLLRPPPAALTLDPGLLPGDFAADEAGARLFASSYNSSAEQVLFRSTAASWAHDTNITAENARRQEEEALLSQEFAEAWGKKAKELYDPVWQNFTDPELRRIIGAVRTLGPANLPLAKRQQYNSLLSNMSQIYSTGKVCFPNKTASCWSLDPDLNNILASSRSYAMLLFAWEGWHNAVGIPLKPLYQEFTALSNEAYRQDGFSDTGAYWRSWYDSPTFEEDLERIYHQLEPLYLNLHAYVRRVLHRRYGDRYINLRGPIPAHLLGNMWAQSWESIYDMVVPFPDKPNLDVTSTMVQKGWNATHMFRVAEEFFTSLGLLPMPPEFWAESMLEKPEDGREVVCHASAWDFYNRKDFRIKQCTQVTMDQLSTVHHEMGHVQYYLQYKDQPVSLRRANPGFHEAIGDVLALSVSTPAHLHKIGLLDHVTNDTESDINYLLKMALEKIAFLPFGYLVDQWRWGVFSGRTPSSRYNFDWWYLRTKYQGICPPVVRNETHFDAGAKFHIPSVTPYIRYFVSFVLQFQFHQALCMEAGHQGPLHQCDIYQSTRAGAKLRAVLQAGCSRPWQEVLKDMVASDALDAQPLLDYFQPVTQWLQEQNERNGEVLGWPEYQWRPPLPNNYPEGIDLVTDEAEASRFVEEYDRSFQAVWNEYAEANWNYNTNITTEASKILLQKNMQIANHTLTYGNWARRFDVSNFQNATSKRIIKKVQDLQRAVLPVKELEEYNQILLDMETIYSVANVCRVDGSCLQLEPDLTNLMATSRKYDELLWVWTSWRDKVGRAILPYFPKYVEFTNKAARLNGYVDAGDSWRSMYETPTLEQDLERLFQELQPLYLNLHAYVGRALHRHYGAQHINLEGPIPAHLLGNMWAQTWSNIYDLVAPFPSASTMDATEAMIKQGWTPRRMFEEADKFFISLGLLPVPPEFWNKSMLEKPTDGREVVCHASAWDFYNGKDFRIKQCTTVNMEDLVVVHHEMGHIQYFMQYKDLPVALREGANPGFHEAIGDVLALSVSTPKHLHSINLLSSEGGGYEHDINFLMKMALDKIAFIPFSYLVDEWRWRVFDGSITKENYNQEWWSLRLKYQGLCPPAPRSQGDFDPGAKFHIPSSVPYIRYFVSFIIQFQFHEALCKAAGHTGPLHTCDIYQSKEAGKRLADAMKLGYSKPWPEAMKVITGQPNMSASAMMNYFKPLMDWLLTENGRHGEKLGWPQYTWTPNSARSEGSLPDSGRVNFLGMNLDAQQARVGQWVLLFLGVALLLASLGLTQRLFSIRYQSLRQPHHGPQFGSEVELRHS
Assay: not given
Settings: not given
Type of test: tissue-based, Lung.
With `Nn1nnc2ccccc21`, the IC50 result is recorded as “Not Active”.

As for `CC[C@]1(O)CC[C@H]2[C@@H]3CCC4=CCCC[C@@H]4[C@H]3CC[C@@]21C`, the IC50 result is “Not Active”.

Consider `N[C@@H](Cc1ccc(F)cc1)C(=O)O`, for which the IC50 entry is “Not Active”.

Test system in a further test: not listed separately
The test can be described thus: DRUGMATRIX: Glutamate, NMDA, Agonism radioligand binding (ligand: [3H] CGP-39653). The conditions noted are these: Not Active = under 50% inhibition at 10 µM. Type of test: cell membranes, Rattus norvegicus, Wistar, Cerebral cortex, Membrane.
With `Nn1nnc2ccccc21`, the IC50 result is listed as “Not Active” and the Ki result is listed as “Not Active”.

Turning to `CC[C@]1(O)CC[C@H]2[C@@H]3CCC4=CCCC[C@@H]4[C@H]3CC[C@@]21C`, the IC50 entry is given as “Not Active” and the Ki entry was “Not Active”.

In the case of `N[C@@H](Cc1ccc(F)cc1)C(=O)O`, the IC50 result is “Not Active” and the Ki result was “Not Active”.

`CCOC(=O)[C@H](CCc1ccccc1)N[C@@H](C)C(=O)N1Cc2ccccc2C[C@H]1C(=O)O`: the IC50 entry is reported as “Not Active” and the Ki entry is listed as “Not Active”.

Test system in the next test: not listed separately
The test can be described thus: DRUGMATRIX: GABAA, Muscimol, Central radioligand binding (ligand: [3H] Muscimol). Type of test: cell membranes, Rattus norvegicus, Wistar, Brain, Membrane. The conditions noted are these: Not Active = under 50% inhibition at 10 µM.
For `Nn1nnc2ccccc21`, the IC50 entry is recorded as “Not Active” and the Ki entry is reported as “Not Active”.

As to `CC[C@]1(O)CC[C@H]2[C@@H]3CCC4=CCCC[C@@H]4[C@H]3CC[C@@]21C`, the IC50 entry was “Not Active” and the Ki entry was “Not Active”.

Regarding `N[C@@H](Cc1ccc(F)cc1)C(=O)O`, the IC50 result is reported as “Not Active” and the Ki entry is listed as “Not Active”.

As to `CCOC(=O)[C@H](CCc1ccccc1)N[C@@H](C)C(=O)N1Cc2ccccc2C[C@H]1C(=O)O`, the IC50 result is on record as “Not Active” and the Ki result was “Not Active”.
